Measurements reported in ChEMBL document CHEMBL1201862, “PubChem BioAssay data set” (2004).
The source made the active and inactive calls.

How the values were obtained:
[1] = Trypanosoma cruzi growth suppression in host cells – NIH3T3 host cells, beta-gal luminescence, confirmation (AID 2044); type: functional, cell-based;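 further: intracellular parasites grown in NIH/3T3 mouse fibroblasts as host cells; luminescent beta-galactosidase reporter signal from transgenic T. cruzi replicating inside host cells; inhibitors lower the luminescence signal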
[2] = NIH3T3 cell viability loss – ATP luminescence, mouse fibroblasts, counter-screen, dose response (AID 2010); type: functional, cell-based;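 further: cells exposed to compound for about 90 hours before reading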
[3] = NIH-3T3 fibroblast cytotoxicity, dose response, cytotoxicity control, cell-based, fluorescence, Alamar Blue, secondary assay (AID 2327); type: functional;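 further: NIH-3T3 mouse fibroblasts cultured with fluconazole at 8 µg/mL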
[4] = fluconazole-exposed Candida albicans growth modulators – fluorescence, retest, confirmation (AID 2467); type: functional, cell-based
[5] = molecular target: T1, Heat shock factor protein 1 (Mus musculus, UniProt P38532); test: decrease of HSF1-responsive luciferase luminescence – cell-based, NIH3T3, dose retest, confirmation (AID 2382); type: functional;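 further: NIH3T3 fibroblasts with HSF1-driven luciferase reporter stressed by proteasome inhibitor MG132; luminescence from HSF1-driven luciferase expression after 8 hours of MG132 stress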
T1 sequence (P38532 whole entry): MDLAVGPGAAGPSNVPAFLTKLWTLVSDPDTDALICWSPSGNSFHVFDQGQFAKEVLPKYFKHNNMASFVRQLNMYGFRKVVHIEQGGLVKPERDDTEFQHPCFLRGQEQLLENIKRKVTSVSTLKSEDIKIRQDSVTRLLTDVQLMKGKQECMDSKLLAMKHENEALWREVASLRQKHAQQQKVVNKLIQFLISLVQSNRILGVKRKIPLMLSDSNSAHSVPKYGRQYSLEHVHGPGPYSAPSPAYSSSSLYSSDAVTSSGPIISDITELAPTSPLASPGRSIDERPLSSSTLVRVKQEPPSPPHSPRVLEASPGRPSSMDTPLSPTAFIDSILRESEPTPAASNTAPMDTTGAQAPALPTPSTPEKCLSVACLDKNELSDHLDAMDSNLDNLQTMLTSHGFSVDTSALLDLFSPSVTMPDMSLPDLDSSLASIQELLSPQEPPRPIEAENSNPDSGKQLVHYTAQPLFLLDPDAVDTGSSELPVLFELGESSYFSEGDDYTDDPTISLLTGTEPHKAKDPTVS

Cytochrome P450 2C19 = Cytochrome P450 2C19 (Homo sapiens, UniProt P33261); test: Cytochrome panel assay with activity outcomes. Panel member name: p450-cyp2c19 Compounds with AC50 equal or less than 10 uM are considered active; type: functional
Streptococcus = test: GAS UMAA2166 growth inhibition – luminescence, BacTiterGlo, counter-screen for streptokinase expression inhibitor project, dose response (AID 1915); type: functional, organism-based;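 further: potency for reduction of bacterial viability or growth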
[6] = system: Streptococcus sp. 'group A'; test: Streptococcus pyogenes SK(-)GAS viability under kanamycin – luminescence, BacTiterGlo, confirmation, counter-screen for streptokinase expression inhibitor project, dose response (AID 1900); type: functional, organism-based
[7] = molecular target: FAD-linked sulfhydryl oxidase ALR (Homo sapiens, UniProt P55789); test: ALR-catalysed DTT oxidation blockers – biochemical, H2O2 detection, luminescence, cherry-pick, dose response (AID 493248)
INS1 = test: INS-1E survival protection against cytokine death – cell-based, luminescence, retest, dose response (AID 449756); type: functional; details: Rattus norvegicus;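 further: cell death triggered by IL-1 beta plus TNF-alpha plus IFN-gamma mixture; protective hits raise ATP signal compared with cytokine alone wells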
[8] = luciferase reporter signal suppression in cells – H4 neuroglioma cells, luminescence, dose response (AID 1990); type: functional, cell-based
[9] = Luminescence Cell-Based Dose Response HTS to Identify Inhibitors of 5'UTR Stem-Loop Driven Prion Protein mRNA Translation in H4 Neuroglioblastoma Cells. [Related pubchem assays: 1827 (Project Summary), 1813 (Primary HTS)]; type: functional
[10] = alpha-synuclein stem-loop luciferase translation blockers – H4 neuroglioma cells, luminescence, confirmation (AID 1988); type: functional, cell-based
[11] = reduction of Shn3 3'UTR-driven luciferase in osteoblasts – cell-based, Clone20 osteoblasts, firefly luciferase, cherry-picked, dose response (AID 624132); type: functional;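 further: firefly luciferase luminescence from reporter carrying the Shn3 3'UTR in osteoblasts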
[12] = non-specific 3'UTR reporter inhibition in Clone20-Shn3RL – cell-based, Renilla luciferase, cherry-picked, counter-screen for Shn3 inhibitor project, dose response (AID 624133); type: functional

Chain of Cytochrome P450 2C19 (P33261 whole entry): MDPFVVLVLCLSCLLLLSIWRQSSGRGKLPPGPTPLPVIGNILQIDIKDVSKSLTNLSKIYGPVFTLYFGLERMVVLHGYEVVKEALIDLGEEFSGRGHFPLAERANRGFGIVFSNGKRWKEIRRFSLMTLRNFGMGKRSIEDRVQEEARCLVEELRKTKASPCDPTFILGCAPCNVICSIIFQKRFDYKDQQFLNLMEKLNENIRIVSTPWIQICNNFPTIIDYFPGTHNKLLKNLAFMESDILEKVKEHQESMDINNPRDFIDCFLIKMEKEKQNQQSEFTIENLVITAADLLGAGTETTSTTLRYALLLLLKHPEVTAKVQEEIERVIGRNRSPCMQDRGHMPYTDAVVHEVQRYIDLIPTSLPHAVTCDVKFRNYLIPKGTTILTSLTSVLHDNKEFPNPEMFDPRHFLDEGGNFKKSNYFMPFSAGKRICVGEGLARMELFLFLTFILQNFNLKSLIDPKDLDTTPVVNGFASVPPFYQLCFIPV
Chain of FAD-linked sulfhydryl oxidase ALR (P55789 whole entry): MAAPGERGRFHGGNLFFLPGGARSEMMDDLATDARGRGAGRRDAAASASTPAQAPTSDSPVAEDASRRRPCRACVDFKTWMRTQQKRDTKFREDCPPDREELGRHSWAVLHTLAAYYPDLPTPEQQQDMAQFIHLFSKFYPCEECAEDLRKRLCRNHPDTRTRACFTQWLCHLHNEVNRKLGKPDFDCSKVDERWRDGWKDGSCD

O=C(CSc1oc(-c2cccs2)nc1S(=O)(=O)c1ccccc1)NC1CCCCC1
EC50 [1]: 1.13 µM (active)
EC50 [2]: > 60 µM (inconclusive)

NC1=NC(=O)C(Cc2cccc(Cl)c2Cl)S1 (centres undefined)
EC50 [3]: 21.6 µM (inconclusive)
EC50 [4]: > 38 µM (not active)

CCOC(=O)N1CCN(c2nc(C)c3c(n2)CCCC3=O)CC1
EC50 [5]: > 195 µM (not active)

COc1ccc(CNC(=O)c2ccc(CS(=O)(=O)c3ccc(Br)cc3)o2)cc1
EC50 [5]: > 195 µM (not active)

c1ccc(-n2ncc3c(NCCCN4CCOCC4)ncnc32)cc1
AC50 (Cytochrome P450 2C19; read-out: AC50): 15.8 µM (inconclusive)

CCC1=NN2C(=N)/C(=C\c3cccn3-c3ccc(C)c(C)c3)C(=O)N=C2S1
EC50 (Streptococcus): 6.01 µM (active)
EC50 [6]: 3.34 µM (active)

COc1cc(/C=C2/C(=O)ON=C2C)cc(Cl)c1O
AC50 [7]: 16 µM (active)

CCCc1nnc(N=C(S)Nc2ccccc2)s1
EC50 [3]: > 160 µM (inactive)
EC50 [4]: 1.09 µM (active)

CS(=O)(=O)Nc1nc2ccccc2[nH]1
EC50 [5]: > 195 µM (not active)

CC1=NN(c2ccccc2)C(=O)C1/C=C1/C(=O)NC(=O)N(c2cc(C)cc(C)c2)C1=O (centres undefined)
AC50 [7]: 1.76 µM (active)

COc1ccc(CNC(=O)OCCN2CCN(S(=O)(=O)c3ccc(C)cc3)CCC2=O)cc1
EC50 [5]: > 195 µM (not active)

S=C(Nc1ccc(Cl)cc1)Nc1ccc2c(c1)OCCO2
EC50 [3]: > 150 µM (inactive)
EC50 [4]: > 38 µM (not active)

COc1ccc(CCN(C)CCC(=O)Nc2ccc(C)cc2)cc1OC
EC50 [1]: 0.227 µM (active)
EC50 [2]: > 60 µM (not active)

CCc1ccc(C(=O)NNc2cc(Cl)ccc2Cl)cc1
AC50 (INS1): 6.64 µM (active)

COc1ccccc1N1CCN(C(S)=Nc2ccc(F)cc2)CC1
EC50 [5]: 54.6 µM (active)

CCN(CC)S(=O)(=O)c1cc(C)ccc1N=C(S)Nc1cccnc1
AC50 (INS1): 43.2 µM (active)

CCN(CC)c1ccc(NC(=O)C2CC3CCC2C3)cc1 (centres undefined)
AC50 [7]: 0.431 µM (active)

CCN(CCCNS(=O)(=O)c1ccc2c(c1)CCN2C(C)=O)c1cccc(C)c1
AC50 [7]: 2.81 µM (active)

Cc1ccc(S(=O)(=O)CCC(=O)Nc2ccc(Br)cc2)cc1
EC50 [5]: > 195 µM (not active)

O=C(NCC(c1ccco1)N1CCc2ccccc21)c1ccccc1F (centres undefined)
AC50 [7]: 1.67 µM (active)

Cc1ccc(NC(S)=NC2CC3CCC(C2)N3Cc2ccco2)cc1C (centres undefined)
EC50 [5]: > 195 µM (not active)

O=C(CCn1c(=S)oc2ccccc21)NC1CCCCCC1
EC50 [5]: > 195 µM (not active)

O=C(NCc1ccc(C(=O)O)cc1)OCc1ccccc1
EC50 [5]: > 195 µM (not active)

Cc1cccc(Sc2nc(-c3ccccc3)ncc2C(=O)O)c1
EC50 [3]: 104 µM (active)
EC50 [4]: 1.66 µM (active)

COc1ccc(Nc2ncnc3sc(-c4ccccc4)cc23)cc1
EC50 [5]: > 195 µM (not active)

Cc1ccc(C(=O)N(Cc2cccnc2)Cc2cc3cc(C)ccc3n3nnnc23)cc1
EC50 [1]: 1.29 µM (active)
EC50 [2]: > 60 µM (not active)

Brc1ccc2c(c1)[C@H]1OCC[C@H]1[C@@H](c1cccs1)N2
EC50 [8]: > 60 µM (not active)
EC50 [9]: 17.2 µM (active)
EC50 [10]: 13.2 µM (active)

COc1ccccc1NS(=O)(=O)c1cccc(NC(=O)c2[nH]c(C)c(C(C)=O)c2C)c1
AC50 (INS1): 31.1 µM (active)

Cc1cccc(C(=O)NC(=S)N2CCN(c3ccc([N+](=O)[O-])cc3)CC2)c1
EC50 [5]: > 195 µM (not active)

CC(=O)Nc1ccc2c(c1)OCCO2
AC50 (Cytochrome P450 2C19; read-out: AC50): 17.8 µM (inconclusive)

CCOC(=O)c1cc(-c2ccccc2)sc1NC(=O)CN1C(=O)NC(CC)(c2ccccc2)C1=O (centres undefined)
EC50 [1]: 2.17 µM (active)
EC50 [2]: > 60 µM (inconclusive)

COc1ccc(/C=C2\SC(=S)N(CCCC(=O)N3CCN(C)CC3)C2=O)cc1
EC50 [1]: 1.06 µM (active)
EC50 [2]: 8.7 µM (active)

Cc1ccc(S(=O)(=O)CC(=O)Nc2ccc(S(=O)(=O)Nc3onc(C)c3C)cc2)cc1
EC50 [5]: > 195 µM (not active)

COc1ccccc1C(=O)NCCn1cc(SCC(=O)Nc2cc(C)on2)c2ccccc21
EC50 [8]: 16.2 µM (active)
EC50 [9]: > 120 µM (not active)
EC50 [10]: > 120 µM (not active)

C=CCn1c(S)nnc1-c1cccn(Cc2ccccc2)c1=O
EC50 [8]: > 120 µM (not active)
AC50 (Cytochrome P450 2C19; read-out: AC50): 25.1 µM (inconclusive)
EC50 [9]: 27.4 µM (active)
EC50 [10]: > 120 µM (not active)

CN1C2CCC1CC(OC(=O)c1ccc(Cl)cc1)C2 (centres undefined)
AC50 (Cytochrome P450 2C19; read-out: AC50): 5.62 µM (inconclusive)

CN(C)c1ccc(CNc2ncnc3sccc23)cc1
EC50 [3]: > 160 µM (inactive)
EC50 [4]: 2.63 µM (active)

O=C(NCc1ccco1)c1ccccc1NS(=O)(=O)c1ccc(Cl)s1
AC50 [7]: 2.1 µM (active)

O=c1[nH]n2c(C(F)(F)F)cc(C3CC3)nc2c1N=Nc1ccccc1
EC50 [3]: > 150 µM (inactive)
EC50 [4]: 1.05 µM (active)

O=C(Cn1cc(C(=O)c2ccco2)c2ccccc21)NC1CCCCC1
EC50 [5]: > 195 µM (not active)

Nc1ccc(Cl)c(S(=O)(=O)Nc2ccc(Cl)cc2)c1
EC50 [1]: 39.7 µM (active)
EC50 [2]: > 60 µM (not active)

Cc1ccc(-c2nc(-c3cccnc3)sc2CC(=O)O)cc1
AC50 [7]: 3.45 µM (active)

Oc1[nH]c2ccc(Br)cc2c1N=Nc1ccc(C(F)(F)F)cn1
EC50 [1]: 2.33 µM (active)
EC50 [2]: > 60 µM (not active)

COc1cc(OC)cc(-c2cc(N3C(=O)Nc4ccccc4N3O)[nH]n2)c1
EC50 [5]: 73.7 µM (active)

O=C(Nc1ccc(-c2nc3ccccc3s2)cc1)C1=COCCO1
EC50 [9]: 5.8 µM (active)
EC50 [10]: 2.95 µM (active)

COC(=O)C1=CN(Cc2ccc(OC)c(OC)c2)C=C(C(=O)OC)C1c1cccc(OC)c1OC
EC50 [1]: 0.384 µM (active)
EC50 [2]: > 60 µM (not active)

COc1c(Cl)cc(Cl)cc1CNCCNCC(C)O (centres undefined)
AC50 (Cytochrome P450 2C19; read-out: AC50): 14.1 µM (inconclusive)

O=C(c1cc([N+](=O)[O-])ccc1N1CCCCC1)N1CCc2ccccc21
EC50 [8]: > 120 µM (not active)
EC50 [9]: > 120 µM (not active)
EC50 [10]: 10.9 µM (active)

O=C(CC(Sc1ccc(Br)cc1)C(=O)O)c1ccc(F)cc1 (centres undefined)
EC50 [1]: 2.1 µM (active)
EC50 [2]: > 30 µM (not active)

CC(=O)N1CCOCCOCCN(C(C)=O)CCOCCOCC1
EC50 [3]: > 150 µM (inconclusive)

CCOC(=O)N1CCN(CC(c2ccccc2)c2ccccc2)CC1
AC50 [11]: 14.1 µM (active)
AC50 [12]: 39.1 µM (active)

O=C(CN1CCN(S(=O)(=O)c2ccc3ccccc3c2)CC1)NC(=O)NC1CCCCC1
EC50 [8]: 13 µM (active)
EC50 [9]: > 120 µM (not active)
EC50 [10]: 46.8 µM (active)

Cc1cccc2cc(CN(Cc3cccs3)Cc3nnnn3Cc3ccccc3)c(O)nc12
EC50 [1]: 2.68 µM (active)
EC50 [2]: > 30 µM (not active)

C1=C(c2ccccc2)CCN(c2[nH]cnc3ncnc2-3)C1
EC50 [5]: > 195 µM (not active)

Cc1ccc2nc(Cl)c(-c3ccccc3)cc2c1
EC50 [8]: > 120 µM (not active)
EC50 [9]: > 120 µM (not active)
EC50 [10]: > 120 µM (not active)

CCc1ccc(-[n+]2cc(-c3ccc(F)cc3)n3c2SCCC3)cc1
AC50 (INS1): 0.429 µM (active)

Cn1c(=O)[nH]c(=O)c2c1nc(CN1CCOCC1)n2CCCO
AC50 (Cytochrome P450 2C19): inconclusive

Cc1cc(C(=O)N2CCCC(Nc3ccc(C(C)C)cc3)C2)nn1C (centres undefined)
AC50 [7]: 6.69 µM (active)

Cc1c(Br)cnn1C(C)C(=O)N1CCN(c2ccc(F)cc2)CC1 (centres undefined)
AC50 [7]: 0.578 µM (active)

c1ccc(CNc2ncnc3sc4c(c23)CCCC4)nc1
AC50 [7]: 37.2 µM (active)

Cc1cccc(N2CCN(C(=O)NC3CCCCC3)CC2C)c1 (centres undefined)
AC50 [7]: 6.6 µM (active)

C/C(=N\Nc1ccc(Cl)c(C(=O)O)c1)c1cc2ccccc2o1
AC50 [7]: 0.138 µM (active)

C/C(=N\Nc1nc(C)cc(-c2ccccc2)n1)c1ccc(O)cc1
AC50 (INS1): 0.993 µM (active)

O=C(N/N=C/c1ccccc1F)NC12CC3CC(CC(C3)C1)C2
EC50 [1]: 2.78 µM (active)
EC50 [2]: > 30 µM (not active)

CC(=O)O[C@H]1CC[C@]2(C)[C@H]3CC=C4[C@@H]5[C@@H](C)[C@H](C)CC[C@]5(C(=O)O)CC[C@@]4(C)[C@]3(C)CC[C@H]2C1(C)C [O-ACETYLURSOLIC ACID]
EC50 (Streptococcus): 3.26 µM (active)
EC50 [6]: 2.11 µM (active)
